Assay results: patent EP2716637A1, “MANGIFERIN AGLYCONE CRYSTAL FORM I AND PREPARATION METHOD THEREOF” (Kunming Pharmaceutical Corp., priority 2011, dated 2012)
Like-named read-outs stand apart in the source and are kept apart here.

Assays:
[1] = Blood concentration after oral (intragastric) administration to Beagle dogs; format: in vivo; details: for concentration: intragastrically, 6mg/kg, solid powder, listed as Commercially available mangiferin aglycone, 6 mg/kg, read-out: Mangiferin aglycone concentration in serum
Experimental: Solid powder of mangiferin aglycone crystal form I and commercially available mangiferin aglycone (reference substance of mangiferin aglycone, purchased from Sigma Corporation, Lot No.: 8420-201002) were administered to Beagle dogs intragastrically respectively. The dosage of administration was 6mg/kg, and arterial blood of the dogs was drawn at different time points after administration to determine the content of mangiferin aglycone (See Table 4 and Figure 6). Table 4. Comparison of blood concentrations at different time points after mangiferin aglycone samples were administered orally to Beagle dogs

[2] = tested on: C57BL/6 normal mice and ob/ob diabetes model mice; details: cited from earlier work
[3] = target: T1, recombinant humanized protein tyrosine phosphatase 1B (Homo sapiens, UniProt P18031); details: reported from CN200910184185.5; cited from earlier work
T1 sequence (P18031 1-435): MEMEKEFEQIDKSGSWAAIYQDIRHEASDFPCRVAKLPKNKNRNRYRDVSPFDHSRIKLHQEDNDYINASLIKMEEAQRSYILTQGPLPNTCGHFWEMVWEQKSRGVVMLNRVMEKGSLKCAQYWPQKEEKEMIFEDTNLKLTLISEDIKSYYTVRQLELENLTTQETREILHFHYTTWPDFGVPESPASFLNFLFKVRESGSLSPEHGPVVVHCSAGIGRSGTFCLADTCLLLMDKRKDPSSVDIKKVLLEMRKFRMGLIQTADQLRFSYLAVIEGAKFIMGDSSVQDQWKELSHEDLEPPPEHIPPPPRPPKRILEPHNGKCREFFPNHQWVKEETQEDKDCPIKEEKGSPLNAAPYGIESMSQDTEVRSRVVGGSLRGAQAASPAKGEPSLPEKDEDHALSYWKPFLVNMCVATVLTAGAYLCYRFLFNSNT

[4] = Stability of solutions in alkaline phosphate buffer, content by HPLC; format: physicochemical
Experimental: Appropriate amounts of mangiferin aglycone crystal form I and mangiferin aglycone were taken respectively, and phosphate buffer of pH 8.0, pH 9.0 and pH 10.0 were added respectively, metered to 100 ml, and were allowed to stand at 37°C, and samples were taken at 2, 4, 6, 8 and 12 hours respectively, and the content of mangiferin aglycone were measured by HPLC method. Stability of solution of mangiferin aglycone crystal form I

C57BL/6 normal mouse = details: reported from CN200810196777.4, cited from earlier work

With `O=c1c2cc(O)c(O)cc2oc2cc(O)cc(O)c12` [mangiferin aglycone, 1,3,6,7-tetrahydroxyxanthone] the concentration ([1]; 0.25 hr, 15 min) was 666 nM, the concentration ([1]; 0.5 hr, 30 min) was 404 nM and the concentration ([1]; 0.75 hr, 45 min) was 414 nM. For the same compound, the concentration ([1]; 1 hr, 60 min) was 366 nM, the concentration ([1]; 1.5 hr, 90 min) was 136 nM and the concentration ([1]; 2 hr, 120 min) was 108 nM. The concentration ([1]; 3 hr, 180 min) was 100 nM, the concentration ([1]; 4 hr, 240 min) was 70.1 nM and the concentration ([1]; 6 hr, 360 min) was 52.6 nM. The concentration ([1]; 8 hr, 480 min) was 41.3 nM, the blood concentration ([1]; same oral dosage, compared with mangiferin aglycone crystal form I) was “significantly lower” and the “blood glucose of the experimental animal” value [2] was “reduce”. For the same compound, the sensitivity to insulin [2] was “significantly improve”, the type of inhibition [3] was “competitive inhibitor” and the “content of mangiferin aglycone” value ([4]; phosphate buffer pH8, 37°C, standing time 2h, 120 min) was 98.5%. For the same compound, the “content of mangiferin aglycone” value ([4]; phosphate buffer pH8, 37°C, standing time 4h, 240 min) was 97.5%, the “content of mangiferin aglycone” value ([4]; phosphate buffer pH8, 37°C, standing time 6h, 360 min) was 96.3% and the “content of mangiferin aglycone” value ([4]; phosphate buffer pH8, 37°C, standing time 8h, 480 min) was 94.5%. For the same compound, the “content of mangiferin aglycone” value ([4]; phosphate buffer pH8, 37°C, standing time 12h, 720 min) was 93.2%, the “content of mangiferin aglycone” value ([4]; phosphate buffer pH9, 37°C, standing time 2h, 120 min) was 97.3% and the “content of mangiferin aglycone” value ([4]; phosphate buffer pH9, 37°C, standing time 4h, 240 min) was 94.3%. For the same compound, the “content of mangiferin aglycone” value ([4]; phosphate buffer pH9, 37°C, standing time 6h, 360 min) was 93.4%, the “content of mangiferin aglycone” value ([4]; phosphate buffer pH9, 37°C, standing time 8h, 480 min) was 92.3% and the “content of mangiferin aglycone” value ([4]; phosphate buffer pH9, 37°C, standing time 12h, 720 min) was 91.0%. The “content of mangiferin aglycone” value ([4]; phosphate buffer pH10, 37°C, standing time 2h, 120 min) was 97.7%, the “content of mangiferin aglycone” value ([4]; phosphate buffer pH10, 37°C, standing time 4h, 240 min) was 93.8% and the “content of mangiferin aglycone” value ([4]; phosphate buffer pH10, 37°C, standing time 6h, 360 min) was 92.1%. For the same compound, the “content of mangiferin aglycone” value ([4]; phosphate buffer pH10, 37°C, standing time 8h, 480 min) was 91.0%, the “content of mangiferin aglycone” value ([4]; phosphate buffer pH10, 37°C, standing time 12h, 720 min) was 90.3% and the “in vivo secretion of insulin induced by glucose” value (C57BL/6 normal mouse; C57BL/6-normal mouse) was “increase”. For the same compound, the IGTT (C57BL/6 normal mouse; C57BL/6 normal mouse) was “significantly improve”.
